Test [1] concerns human telomeric G4 DNA, dAGGG(TTAGGG)3 (DNA, G4) AGGGTTAGGGTTAGGGTTAGGG
In words: EMSA. Particulars: 30 μM G4; room temperature; up to 120 μM peptide.

Test [2] relates to ds26 (DNA, duplex) CAATCGGATCGAATTCGATCCGATTG
In words: ITC. Particulars: Na+ 100 mM.

For test [3], the system named is human telomeric G4 DNA, dAGGG(TTAGGG)3 (DNA, G4) AGGGTTAGGGTTAGGGTTAGGG
In words: ITC. Conditions: 298.15 K; 64 μM DNA in cell, 700 μM peptide in syringe.

For test [4] the test system is unchanged. In words: CD melting (295 nm). Particulars: Na+ 100 mM; peptide concentration not given.
Test [5] shares this test system. In words: thiazole orange displacement (fluorescence). Particulars: 298 K; at ~8.4 μM peptide; thiazole orange displaced; 0.25 μM G4, 0.50 μM TO.

With `CC(C)[C@H](N)C(=O)N[C@@H](CCC(=O)N[C@@H](CCC(=O)O)C(=O)O)C(=O)N[C@@H](CCC(=O)O)C(=O)O` (racemic), the binding result in test [1] and in test [3] was “no” each time. Besides, the Ka in test [2] came out at 3360 M⁻¹. Further, in test [4], the Tm was ~ -1 °C. Moreover, the “% TO displacement” value in test [5] is reported as ~ 6.5%.

Values taken from paper PMC9122626 (2020).
